Where two headings read alike, the source gives them in different places.

Data set [1] is classed as in vivo, Rhesus monkey. To be noted: 14C-parathion intravenously; activated charcoal gel DSCD, skin pre-treated with Azone. The source says: Extensive In vivo testing of the dermal substance collection device (DSCD) has been undertaken in rabbits (R, Rhesus monkeys (M) and humans (H). […]. Experimental conditions were varied in order to evaluate various binding reservoirs including activated charcoal dispersed in a saline/gel matrix, various DSCD embodiments which provide a liquid bridge including saline, immobilized by various gels such as agarose or polyvinyl alcohol as the gelling agent, various DSCD embodiments which provide persistent occlusive contact of the liquid bridge with the skin (single layer adhesive tape overlying the DSCD liquid bridge/binding reservoir complex vs multiple tape/foil layers enveloping a liquid bridge/binding reservoir complex vs multiple tape/foil layers enveloping a liquid bridge/binding reservoir complex which protrudes into the skin effecting positive pressure during emplacement), various preparatory procedures (shaving, clipping of hair, use of a chemical depilitant, cleansing of the skin with soap and isopropyl alcohol), and various skin penetration enhancing agents (Azone, DET, DMSO).
In a typical animal experiment, a Rhesus monkey is anesthetized with ketamine 10 mg/kg and the hair on the chest and abdomen is clipped prior to washing the underlying skin (with a mild soap or isopropyl alcohol). […]

For data set [2] the following is noted: Rhesus monkeys, maximum percentage of administered dose collected, liquid bridge diameter 9 mm.
The nature of data set [3]: Collection of cimetidine by DSCDs in a healthy volunteer. To be noted: 5 mg/kg orally or intravenously, 24 hours, 25 mm liquid bridge, agarose gel with activated charcoal.
Data set [4] can be described thus: Collection of THC by DSCDs after oral THC, RIA after toluene/ethanol extraction. The conditions noted are these: cancer patient, oral 10 mg THC, up to 48 hours, lower legs, 1 cm gel.
The mark [5] stands for this setting: parent compound and metabolites.

With `CCOP(=S)(OCC)Oc1ccc([N+](=O)[O-])cc1` [14C-parathion], in data set [1], the “transdermal collection (in words)” value is on record as “particularly satisfactory transdermal collection”.
Take `CN/C(=N/CCSCc1nc[nH]c1C)NC#N` [CIMETIDINE, cimetidine]: the “EXTENT OF TRANSDERMAL MIGRATION” value in data set [2] (parent compound only) stood at 8.3 % Dose × 10^4. Moreover, the “amount of cimetidine collected from DSCDs” value in data set [3] lay within 62 to 461 ng.
Consider `CN1CCCC1c1cccnc1` (stereo not shown) [NICOTINE, nicotine], for which the “EXTENT OF TRANSDERMAL MIGRATION” value in data set [2] (setting [5]) came out at 2.5 % Dose × 10^4.
Still for that read-out and setting: to `CCOP(=S)(OCC)Oc1ccc([N+](=O)[O-])cc1` [PARATHION, parathion] belongs 0.7 % Dose × 10^4.
Turning to `CCCCCc1cc(O)c2c(c1)OC(C)(C)[C@@H]1CCC(C)=C[C@@H]21` [TETRAHYDROCANNABINOL], the “EXTENT OF TRANSDERMAL MIGRATION” value in data set [2] (parent compound only) is reported as 0.1 % Dose × 10^4. Moreover, the results for the “amount of THC collected from DSCDs” value in data set [4] (agarose gel without activated charcoal) and in data set [4] (gel with activated charcoal) were 224 ± 22 pg and 601 ± 302 pg, respectively.
Turning to `Cn1c(=O)c2[nH]cnc2n(C)c1=O` [THEOPHYLLINE, theophylline], in data set [2] (setting [5]), the “EXTENT OF TRANSDERMAL MIGRATION” value is recorded as 25 % Dose × 10^4.
For inulin, the “EXTENT OF TRANSDERMAL MIGRATION” value in data set [2] (setting [5]) is listed as 0.5 % Dose × 10^4.

Source of the values: patent US4819645A, “Dermal substance collection method” (priority 1987, dated 1989).
